Results as given in patent US8440619B2, “Utilization of hypertension/hypercardia-preventing effect of D-allose” (National University Corporation Kagawa University, priority 2005, dated 2013).

Legend:
Nox-1 messenger RNA = assay: Messenger RNA of NADPH oxidase-composing factor Nox1; format: in vivo, rat; settings: DS rats, 4% salt diet, 4 weeks, DR rats = 1.00
Text: (§1) Salt-sensitive male Dahl rats of age 7 weeks and with the onset of hypertension (DS) and salt-insensitive male Dahl rats of the same age (DR) were used. The DS rats were fed with a 0.5% salt diet or a 4% salt diet (Oriental Yeast Co., Ltd.) for 4 weeks (individually referred to as 0.5% salt diet group and 4% salt diet group). During the period, D-allose or D-glucose was orally given to the 4% salt diet group at 2 g daily/kg body weight (D-allose group or D-glucose group). The DR rats were fed with the 0.5% salt diet group and used as a normal control group. Blood pressure was measured by the tail-cuff method over time, while before salt loading and on the completion of salt loading, urine was collected for one day. On the last day of the observation period, the thoracic aorta was resected. A part thereof was used to quantify the amount of generated active oxygen in the aorta by the lucigenin method, while another part thereof was used to compare the amount of generated active oxygen between the groups by the dihydroxyethidium (DHE) fluorescence method. So as to assay the expression level of the messenger RNA of the NADPH oxidase involved in the increase of tissue oxidative stress (J Hypertens. 2004; 22:2161-2168), further, the renal cortex and the thoracic aorta were partially stored at −80° C. The levels of the messenger RNAs of p22phox and Nox analogs (Nox-1, gp91phox, Nox-4) as the NADPH oxidase-composing factors were assayed and compared in between thoracic aorta and renal cortex.

[1] = Body weight, organ weight and feed intake in DS rats; format: in vivo, rat; settings: 4% salt diet, 2 g daily/kg orally, after 4-week feeding
Text: as §1, with “C.” for “C. The levels of the messenger RNAs of p22phox and Nox analogs (Nox-1, gp91phox, Nox-4) as the NADPH oxidase-composing factors were assayed and compared in between thoracic aorta and renal cortex.”

[2] = tested on: active oxygen in rat thoracic aorta; assay: Generated active oxygen in thoracic aorta, DHE fluorescence method; format: in vivo; settings: DS rats, 4% salt diet, 2 g daily/kg orally, 4 weeks
Text: as §1, with “[…] A 10-μm ring slice piece was prepared from the embedded aorta with a cryostat,” for “So as”, “observe” for “assay”, “intra-tissue localization of ethidium generated from the specific reaction between active oxygen and DHE, along with the intensity” for “expression level”, “luminescence, with a co-focus microscope (Bio-Rad).” for “messenger RNA of the NADPH oxidase involved in the increase of tissue oxidative stress (J Hypertens. 2004; 22:2161-2168), further, the renal cortex and the thoracic aorta were partially stored at −80° C. The levels of the messenger RNAs of p22phox and Nox analogs (Nox-1, gp91phox, Nox-4) as the NADPH oxidase-composing factors were assayed and compared in between thoracic aorta and renal cortex.”

p22phox messenger RNA = assay: Messenger RNA of NADPH oxidase-composing factor p22phox; format: in vivo, rat; settings: DS rats, 4% salt diet, 4 weeks, DR rats = 1.00
Text: as §1

Nox-4 messenger RNA = assay: Messenger RNA of NADPH oxidase-composing factor Nox4; format: in vivo, rat; settings: DS rats, 4% salt diet, 4 weeks, DR rats = 1.00
Text: as §1

[3] = tested on: active oxygen in rat thoracic aorta; assay: Generated active oxygen in thoracic aorta, lucigenin method; format: in vivo; settings: DS rats, 4% salt diet, 2 g daily/kg orally, 4 weeks
Text: as §1, with “[…] Then,” for “The levels of”, “luminescence was counted with a luminescence reader (BLR-301; Aloka).” for “messenger RNAs of p22phox and Nox analogs (Nox-1, gp91phox, Nox-4) as the NADPH oxidase-composing factors were assayed and compared in between thoracic aorta and renal cortex.”

[4] = tested on: spontaneously hypertensive rats (SHR); assay: Systolic blood pressure by the tail-cuff method in spontaneously hypertensive rats; format: in vivo, rat; settings: 2 g daily/kg orally, 4 weeks
Text: (§2) Male spontaneously hypertensive rats of age 8 weeks (SHR) and male Wister KYOTO rats (WKY) of the same age were used. SHR was fed with a 0.5% salt diet or a 8% salt diet (Oriental Yeast Co., Ltd.) for 4 weeks (individually referred to as the 0.5% salt diet group and the 8% salt diet group). Additionally, D-allose or D-glucose was orally given to the 0.5% salt diet group and the 8% salt diet group, at 2 g daily/kg body weight (D-allose group or D-glucose group) during the period. WKY was fed with the 0.5% salt diet and used as a normal control group. Systolic blood pressure was measured by the tail-cuff method over time.

[5] = Urine generation, Na and protein excretion in urine in DS rats; format: in vivo, rat
Text: as §1, with “C.” for “C. The levels of the messenger RNAs of p22phox and Nox analogs (Nox-1, gp91phox, Nox-4) as the NADPH oxidase-composing factors were assayed and compared in between thoracic aorta and renal cortex.”

gp91phox messenger RNA = assay: Messenger RNA of NADPH oxidase-composing factor gp91phox; format: in vivo, rat; settings: DS rats, 4% salt diet, 4 weeks, DR rats = 1.00
Text: as §1

[6] = tested on: salt-sensitive Dahl rats with the onset of hypertension (DS); assay: Blood pressure by the tail-cuff method in salt-loaded salt-sensitive Dahl rats; format: in vivo, rat; settings: 4% salt diet, 2 g daily/kg body weight orally, in 4 weeks
Text: as §1, with “C.” for “C. The levels of the messenger RNAs of p22phox and Nox analogs (Nox-1, gp91phox, Nox-4) as the NADPH oxidase-composing factors were assayed and compared in between thoracic aorta and renal cortex.”

[7] = Body weight, heart weight and kidney weight in SHR; format: in vivo, rat; settings: 2 g daily/kg orally, 4 weeks
Text: as §2

[8] = 4% salt diet, 2 g daily/kg orally, after 4-week feeding

O=C[C@H](O)[C@H](O)[C@H](O)[C@H](O)CO [D-allose]
Nox1 messenger RNA level (Nox-1 messenger RNA; Aorta): 0.74 ± 0.22
Nox1 messenger RNA level (Nox-1 messenger RNA; Renal cortex): 0.88 ± 0.11
Heart weight [1]: 994 ± 28 mg
Heart/body weight ratio [1]: 2.88 ± 0.07 ×10^−3
Kidney weight [1]: 1389 ± 25 mg
Kidney/body weight ratio [1]: 4.03 ± 0.03 ×10^−3
signal accumulation in the aorta media nucleus on DHE fluorescence images [2]: suppressed
p22phox messenger RNA level (p22phox messenger RNA; Aorta): 0.83 ± 0.21
p22phox messenger RNA level (p22phox messenger RNA; Renal cortex): 1.18 ± 0.20
Nox4 messenger RNA level (Nox-4 messenger RNA; Aorta): 1.36 ± 0.10
Nox4 messenger RNA level (Nox-4 messenger RNA; Renal cortex): 1.32 ± 0.22
active oxygen generation in thoracic aorta (lucigenin method) [3]: suppressed to the level as observed in the 0.5% salt diet group or the DR normal control group
systolic blood pressure ([4]; 0.5% salt diet): 180±5 mmHg
systolic blood pressure ([4]; 8% salt diet): 222±8 mmHg
Protein excretion in urine [5, 8]: 31.3 ± 11.8 mg/day
Protein excretion in urine ([5]; before salt loading (baseline)): 9.5 ± 1.2 mg/day
gp91phox messenger RNA level (gp91phox messenger RNA; Aorta): 1.34 ± 0.27
gp91phox messenger RNA level (gp91phox messenger RNA; Renal cortex): 0.97 ± 0.15
diastolic pressure [6]: 102±4 mmHg
systolic pressure [6]: 135±7 mmHg
Heart weight ([7]; 0.5% salt diet): 1042 ± 23 mg
Heart/body weight ratio ([7]; 0.5% salt diet): 3.56 ± 0.05 ×10^−3
Kidney weight ([7]; 0.5% salt diet): 1212 ± 34 mg
Kidney/body weight ratio ([7]; 0.5% salt diet): 4.15 ± 0.08 ×10^−3
Heart weight ([7]; 8% salt diet): 1337 ± 50 mg
Heart/body weight ratio ([7]; 8% salt diet): 4.40 ± 0.06 ×10^−3
Kidney weight ([7]; 8% salt diet): 1387 ± 61 mg
Kidney/body weight ratio ([7]; 8% salt diet): 4.57 ± 0.17 ×10^−3

O=C[C@H](O)[C@@H](O)[C@H](O)[C@H](O)CO [D-glucose]
Nox1 messenger RNA level (Nox-1 messenger RNA; Aorta): 0.85 ± 0.24
Nox1 messenger RNA level (Nox-1 messenger RNA; Renal cortex): 1.03 ± 0.24
Heart weight [1]: 1066 ± 35 mg
Heart/body weight ratio [1]: 3.00 ± 0.08 ×10^−3
Kidney weight [1]: 1370 ± 36 mg
Kidney/body weight ratio [1]: 3.85 ± 0.07 ×10^−3
signal accumulation in the aorta media nucleus on DHE fluorescence images [2]: never changed
p22phox messenger RNA level (p22phox messenger RNA; Aorta): 1.14 ± 0.32
p22phox messenger RNA level (p22phox messenger RNA; Renal cortex): 1.19 ± 0.06
Nox4 messenger RNA level (Nox-4 messenger RNA; Aorta): 1.75 ± 0.24
Nox4 messenger RNA level (Nox-4 messenger RNA; Renal cortex): 1.38 ± 0.16
active oxygen generation in thoracic aorta (lucigenin method) [3]: no such suppressive effect was observed
systolic blood pressure ([4]; 0.5% salt diet): 201±7 mmHg
systolic blood pressure ([4]; 8% salt diet): 255±5 mmHg
Protein excretion in urine [5, 8]: 85.3 ± 20.5 mg/day
Protein excretion in urine ([5]; before salt loading (baseline)): 13.1 ± 3.2 mg/day
gp91phox messenger RNA level (gp91phox messenger RNA; Aorta): 1.90 ± 0.19
gp91phox messenger RNA level (gp91phox messenger RNA; Renal cortex): 1.20 ± 0.28
diastolic pressure [6]: 125±6 mmHg
systolic pressure [6]: 162±5 mmHg
Heart weight ([7]; 0.5% salt diet): 1180 ± 35 mg
Heart/body weight ratio ([7]; 0.5% salt diet): 3.92 ± 0.15 ×10^−3
Kidney weight ([7]; 0.5% salt diet): 1206 ± 32 mg
Kidney/body weight ratio ([7]; 0.5% salt diet): 3.02 ± 0.02 ×10^−3
Heart weight ([7]; 8% salt diet): 1437 ± 38 mg
Heart/body weight ratio ([7]; 8% salt diet): 4.70 ± 0.13 ×10^−3
Kidney weight ([7]; 8% salt diet): 1342 ± 41 mg
Kidney/body weight ratio ([7]; 8% salt diet): 4.40 ± 0.19 ×10^−3
